The values below come from patent US6395293B2, “Biodegradable implant precursor” (Atrix Laboratories, priority 1989, dated 2002).

The nature of series [1]: Cumulative release of flurbiprofen from implant matrix at different polymer concentrations. In kind it is physicochemical. The conditions noted are these: about 5% flurbiprofen; for cumulative release: about 55% poly(DL-lactide); for cumulative percent release: polymer concentration about 45%. From the text:
The release rate of the bioactive agent from the implant matrix may also be adjusted by varying the concentration of the polymer in the polymer solution. For example, the more dilute the polymer concentration, the more readily the bioactive agent will be released from the implant matrix. For example, in a system containing about 5% flurbiprofen and a polymer concentration of about 55% poly(DL-lactide), a cumulative release of about 11.4% at day 1 and about 23% at day 7 may be provided. With a polymer concentration of about 45%, the cumulative percent release is about 23% at day 1 and about 40% at day 7.

Series [2] can be described thus: Ex vivo release of bioactive agent from poly(DL-lactide) implant matrix, with and without release rate modification agent. In kind it is physicochemical. From the text:
The use of a release rate modification agent may either decrease or increase the release of the bioactive agent in the range of multiple orders of magnitude (e.g., 1 to 10 to 100), preferably up to a ten-fold change, as compared to the release of a bioactive agent from a solid matrix without the release rate modification agent. For example, naltrexone and doxycycline are substantially completely released from a polymer matrix comprised of poly(DL-lactide) within about 2-3 days ex vivo. With the addition of a release rate modification agent such as ethyl heptanoate which is hydrophobic to the polymer solution, and formation of the implant matrix through interaction of the polymer solution and an aqueous medium, the release rate of naltrexone or doxycycline can be slowed to produce substantially complete release of the drug within about seven days. With the inclusion of a greater amount of a release rate modification agent into the polymer solution, the time period of the release can be increased to about fourteen days. Other release rate modification agents which are hydrophilic such as polyethylene glycol may increase the release of the bioactive agent. […]

Consider `CC(C(=O)O)c1ccc(-c2ccccc2)c(F)c1` (stereo not drawn) [flurbiprofen], for which, in series [1] (day 1), the cumulative release entry is “about 11.4%” and the cumulative percent release result is reported as “about 23%”. Moreover, in series [1] (day 7), the cumulative release entry was “about 23%” and the cumulative percent release entry is on record as “about 40%”.
For the compound `O=C1CC[C@@]2(O)[C@H]3Cc4ccc(O)c5c4[C@@]2(CCN3CC2CC2)[C@H]1O5` [naltrexone], in series [2] (poly(DL-lactide) matrix with a greater amount of release rate modification agent), the “time period of the release” value is on record as “about fourteen”. In series [2] (poly(DL-lactide) matrix with ethyl heptanoate added as release rate modification agent), the “time to substantially complete release from polymer matrix” value is “about seven”.
